Assay results published in patent US20230037188A1, “TASTEFUL NATURAL SWEETENER AND FLAVOR” (EPC Natural Products Co., Ltd., priority 2018, published 2023).
Entries after “also recorded” stand apart in the source; their conditions may differ.

Columns and labels:
[1] = Kinetics of reaction (degradation of Phe with Reb-A, Gluc, Xyl, Suc) in dependence of pH-conditions, HPLC/MS; format: physicochemical; conditions: for % formation from degraded Reb-A: reaction of Phe and Reb-A
Protocol: Quantitative evaluation was performed using external standardization.

[2] = Sensory evaluation of combinations of EPCalin (Thaumatin), GSGs and SGs and NHDC in water; format: in vivo; conditions: 4.5 ppm Thaumatin (10 ppm EPCalin) and/or 50 ppm GSGs and SGs, NHDC 1-5 ppm
Protocol: 4.5 ppm Thaumatin (equivalent to 10 ppm EPCalin) were dissolved in water. Increasing amounts of NHDC (1-5 ppm) were added to the solution and the sensory properties were evaluated.
50 ppm (GSGs and SGs) were dissolved in water. Increasing amounts of NHDC (1-5 ppm) were added to the solution and the sensory properties were evaluated.
50 ppm (GSGs and SGs) and 4.5 ppm Thaumatin (equivalent to 10 ppm EPCalin) were dissolved in water. Increasing amounts of NHDC (1-5 ppm) were added to the solution and the sensory properties were evaluated.
Sweetness intensity was rated on 5-point scale

[3] = Blind descriptive sensory evaluation by trained tasters of differently prepared Stevia-derived MRPs in beverages and ketchup; format: in vivo; conditions: added before heating to xylose, phenylalanine and SGA; 150 μl sample per 100 ml
Protocol: Each sample was added at a concentration of 1500 ppm to freshly prepared lemon juice (squeezed lemons diluted 1:5 with tap water) containing 4% sugar.
Each sample was added at a concentration of 1000 ppm to Felix Ketchup no added sugar (31.12.2019 L8352, 11:48).
Before tasting the tasters discussed the upcoming series of samples and tasted samples with the predetermined attributes (sweetness) with varying intensities to find a common description. Four trained tasters blind taste tested independently all samples of a series. They were allowed to re-taste and prepared notes for sensory attributes perceived including the relative intensity.
In the last step the attributes noted were discussed openly to find an acceptable description. In case that more than 1 taster disagreed with the description, the tasting was repeated.
Before tasting the tasters discussed the upcoming series of samples and tasted samples with the predetermined attributes with varying intensities to find commonality for the description. Four trained tasters blind taste tested independently all samples of a series. They were allowed to re-taste and made notes for the sensory attributes perceived including the relative intensity.
In the last step the attributes noted were discussed openly to find an agreeable description. In case that more than 1 taster disagreed with thedescription, the tasting was repeated. […]

[4] = Assay to test DPPH radical-scavenging activity; conditions: combinations of amino acids and Reb-A, 100° C., pH 7.8; iron-III reduction and radical scavenging (FIGS. 49, 50)
Protocol: 1 mg 1,1-Diphenyl-2-picrylhydrazyl radical (DPPH)/ml ethanol, dilution to assay concentration were prepared in ethanol (40 μg/mL); Calibration samples were prepared with Ascorbic acid in a concentration of 0-10 μg/mL; as a negative control sample, water was used.
Samples in aqueous solution were used as such or diluted with water.
A 0.1 ml sample (or calibration standard) was mixed with 3.9 ml solution of DPPH° (100 μMolar) and reacted while protected from light at room temperature for 30 min. Absorbance was determined at 517 nm against ethanol.
10 mM of amino acid and/or 10 mM sugar were dissolved in 10 ml 0.1 mM KH2PO4-buffer, pH=7.8.
The samples were kept at 100° C. in sealed glass vials (Pyrex 15 ml with screw caps) for 0 (before reaction), 2.5 or 5.0 hours. Thereafter the samples were transferred to an ice water bath and cooled down to room temperature. These samples were diluted 1:10 and used for the test assay for anti-oxidant potential.

With OC[C@H]1OC(O)[C@H](O)[C@@H](O)[C@@H]1O (stereo partly shown) [Glu] the “% degradation” value ([1]; reaction of Phe and Gluc, pH = 7.0, 1.0 h, 120° C.) was 4.6%.
With COc1ccc(CCC(=O)c2c(O)cc(O[C@@H]3O[C@H](CO)[C@@H](O)[C@H](O)[C@H]3O[C@@H]3O[C@@H](C)[C@H](O)[C@@H](O)[C@H]3O)cc2O)cc1O [NHDC, Neohesperidin dihydrochalcone] the “sweetness, onset, mouth-feel and lingering in words” value [2] was “long lasting lingering; also recorded: boosts the lingering” and the “taste profile in Redbull sugar free” value [3] was “improved the mouth-feel and harmony of taste impression yielding a substantially improved taste profile”.
For C=C1C[C@@]23CC[C@H]4[C@@](C)(CCC[C@@]4(C)C(=O)O[C@@H]4O[C@H](CO)[C@@H](O)[C@H](O)[C@H]4O)[C@@H]2CC[C@]1(O[C@@H]1O[C@H](CO)[C@@H](O)[C@H](O[C@@H]2O[C@H](CO)[C@@H](O)[C@H](O)[C@H]2O)[C@H]1O[C@@H]1O[C@H](CO)[C@@H](O)[C@H](O)[C@H]1O)C3 [Reb-A, Rebaudioside A], the anti-oxidant properties [4] was “substantial anti-oxidant properties”.
In the case of C=C1C[C@@]23CC[C@H]4[C@@](C)(CCC[C@@]4(C)C(=O)O)[C@@H]2CC[C@]1(O[C@@H]1O[C@H](CO)[C@@H](O)[C@H](O[C@@H]2O[C@H](CO)[C@@H](O)[C@H](O)[C@H]2O)[C@H]1O[C@@H]1O[C@H](CO)[C@@H](O)[C@H](O)[C@H]1O)C3 [Reb-B], the “% formation from degraded Reb-A” value ([1]; pH = 5.5) is reported as 23.1%, the “% formation from degraded Reb-A” value ([1]; pH = 7.0) is reported as 22.7% and the “% formation from degraded Reb-A” value ([1]; pH = 8.5) is reported as 19.1%.
